According to patent US4058523A, “Bis(benzamido)-benzene derivatives” (Chugai Seiyaku Kabushiki Kaisha, priority 1974, dated 1977):

Experiments:
[1] = tested on: pylorus ligature ulcer formation; assay: Protective action on pylorus ligature ulcer formation; type: in vivo, Sprague-Dawley strain male rats; conditions: in the duodenum, rats; for Percent Death Rate / Percent Perforating Ulcers: 16 hours after pylorus ligature
Description: Protective Action on pylorus ligature ulcer formation
The pylorus of Sprague-Dawley strain male rats weighing 150-200 g that had abstained from food, but not water for 48 hours was ligatured under ether anethsia. Each rat was allowed to stand individually in a cage for 16 hours without food and water. At the end of this term, the rats were sacrificed by an overdose of diethyl ether. The stomach was taken out of each animal and the gastric mucosa was observed by the use of a dissecting microscope.
Ulcers observed in the gastric mucosa were evaluated on a scale of from 0 to 5 defined as follows.
0: No lesion was observed.
1: Hemorrhage and/or erosion were observed.
2: One to five small ulcers less than 3 mm in diameter were observed.
3: Six or more small ulcers and/or a large ulcer more than 3 mm in diameter were observed.
4: Two or more large ulcers were observed.
5: At least one perforating ulcer was observed.
A test compound was administered as an aqueous solution in an equivalent molar of hydrochloric acid in the duodenum immediately after the pylorus ligature.

Acute toxicity in mice = conditions: mouse, in vivo
Description: Acute toxicity of 1-(3'-dimethylaminopropoxy)-2,4-bis(2"-methylbenzamido)-benzene, 1-(3'-dimethylaminopropoxy)-2,4-bis(3"-methylbenzamido)-benzene, 1-[N-(3-dimethylaminopropyl)-carbamoyl]-2,4-bis(2"-methylbenzamido)-benzene and 1-[N-(3'-dimethylaminopropyl)-carbamoyl]-2,4-bis(3"-methylbenzamido)-benzene were observed by the use of ddY strain male mice (5 weeks old) which were administered orally or intravenously with one of the compounds.
In the case of intravenous administration, the hydrochloride of test compound was dissolved in a physiological saline solution and administered by injecting into a vein of the tail. LD50 was determined by the "Up and Down" method.
When the administration was effected orally, the test compound was suspended in a 1% gum arabic aqueous solution and the suspension was administered orally by gavage. LD50 was determined by the Litchfield and Wilcoxon method or Miller and Tainter method based on death rate of each group of […] 10 days after the administration of the compound.

[2] = tested on: stress-induced ulcer formation; assay: Inhibitory action on stress-induced ulcer formation; type: in vivo, Sprague-Dawley strain male rats; conditions: oral, rats, 10 minutes before stress
Description: Action on stress-induced ulcer formation
Sprague-Dawley strain male rats weighing 200-250 g were deprived of food for 24 hours, and then laid down on their backs on a screen and fixed by fastening their limbs with a strand. The fixed rats were submerged in water bath to the depth of ensiform process with their hind legs dipped first. Sixteen hours after the submergence, the rats were brought out from the bath and their stomachs were taken out. After light fixation with a 1% formalin aqueous solution, the stomach of each animal was cut open along their greater curvature and gastric mucosa was observed through a dissecting microscope. The ulcer was evaluated on an ulcer index calculated from the following equation: […]
wherein a is the number of big ulcers more than 3 mm in diameter and b is the number of small ulcers up to 3 mm in diameter.
A test compound was orally administered as a suspension in a 1% gum arabic aqueous solution, 10 minutes before exposure to stress.

[3] = iv, hydrochloride in physiological saline, Up and Down Method
[4] = oral, 1% gum arabic suspension, 10 days, Litchfield and Wilcoxon Method

Cc1cccc(C(=O)Nc2ccc(OCCCN(C)C)c(NC(=O)c3cccc(C)c3)c2)c1 [1-(3'-dimethylaminopropoxy)-2,4-bis(3"-methylbenzamido)-benzene]
Percent Death Rate ([1]; 50 mg/kg): 33%
Percent Perforating Ulcers ([1]; 50 mg/kg): 50%
Percent Death Rate ([1]; 100 mg/kg): 0%
Percent Perforating Ulcers ([1]; 100 mg/kg): 0%
Percent Death Rate ([1]; 200 mg/kg): 0%
Percent Perforating Ulcers ([1]; 200 mg/kg): 0%
Percent Inhibition ([1]; 200 mg/kg, 16 hours, ulcer index vs control): 75%
LD50 (Acute toxicity in mice; [3]): 38 mg/kg
LD50 (Acute toxicity in mice; [4]): 4700 mg/kg
Number of Ulcers/Stomach, up to 3 mm ([2]; 30 mg/kg): 21
Number of Ulcers/Stomach, up to 3 mm ([2]; 45 mg/kg): 9
Number of Ulcers/Stomach, up to 3 mm ([2]; 67 mg/kg): 7
Number of Ulcers/Stomach, up to 3 mm ([2]; 100 mg/kg): 11

Cc1cccc(C(=O)Nc2ccc(C(=O)NCCCN(C)C)c(NC(=O)c3cccc(C)c3)c2)c1 [1-[N-(3'-dimethylaminopropyl)-carbamoyl]-2,4-bis(3"-methylbenzamido)-benzene]
Percent Death Rate ([1]; 200 mg/kg): 0%
Percent Perforating Ulcers ([1]; 200 mg/kg): 0%
LD50 (Acute toxicity in mice; [3]): 88 mg/kg
LD50 (Acute toxicity in mice; oral, 1% gum arabic suspension, 10 days, Miller and Tainter Method): 5100 mg/kg
Number of Ulcers/Stomach, up to 3 mm ([2]; 100 mg/kg): 17

Cc1ccccc1C(=O)Nc1ccc(OCCCN(C)C)c(NC(=O)c2ccccc2C)c1 [1-(3'-dimethylaminopropoxy)-2,4-bis(2"-methylbenzamido)-benzene]
Percent Death Rate ([1]; 50 mg/kg): 20%
Percent Perforating Ulcers ([1]; 50 mg/kg): 20%
Percent Death Rate ([1]; 100 mg/kg): 0%
Percent Perforating Ulcers ([1]; 100 mg/kg): 0%
Percent Death Rate ([1]; 200 mg/kg): 0%
Percent Perforating Ulcers ([1]; 200 mg/kg): 0%
LD50 (Acute toxicity in mice; [3]): 42 mg/kg
LD50 (Acute toxicity in mice; [4]): 2520 mg/kg
Number of Ulcers/Stomach, up to 3 mm ([2]; 30 mg/kg): 23
Number of Ulcers/Stomach, up to 3 mm ([2]; 45 mg/kg): 17
Number of Ulcers/Stomach, up to 3 mm ([2]; 67 mg/kg): 9
Number of Ulcers/Stomach, up to 3 mm ([2]; 100 mg/kg): 4

Cc1ccccc1C(=O)Nc1ccc(C(=O)NCCCN(C)C)c(NC(=O)c2ccccc2C)c1 [1-[N-(3'-dimethylaminopropyl)-carbamoyl]-2,4-bis(2"-methylbenzamido)-benzene]
Percent Death Rate ([1]; 200 mg/kg): 0%
Percent Perforating Ulcers ([1]; 200 mg/kg): 0%
LD50 (Acute toxicity in mice; [3]): 111 mg/kg
Number of Ulcers/Stomach, up to 3 mm ([2]; 100 mg/kg): 23
